Assay results from the CheMixHub viscosity set.
“And” between values parts separate entries of the source, which are not always exact repeats. Identical values can stand only once. ± gives the uncertainty stated by the source.

Assay: xn = mol fraction of the nth substance listed

CN(CCO)CCO + O
viscosity
Conditions | 293.15 K | 298.15 K | 303.15 K | 308.15 K | 313.15 K | 323.15 K
100 kPa, x1 = 0.131 | – | 9.324 ± 0.38 mPa·s | – | – | – | –
101 kPa, x1 = 0.06 | – | – | 2.548 ± 0.085 mPa·s | – | 1.906 ± 0.061 mPa·s | –
101 kPa, x1 = 0.1 | 7.325 ± 0.88 mPa·s | – | 4.901 ± 0.51 mPa·s | – | 3.458 ± 0.32 mPa·s | 2.551 ± 0.22 mPa·s
101 kPa, x1 = 0.11 | – | – | 5.312 ± 0.17 mPa·s | – | 3.729 ± 0.12 mPa·s | 2.777 ± 0.087 mPa·s
101 kPa, x1 = 0.1991 | 26.19 ± 1.9 mPa·s | – | 15.41 ± 1.1 mPa·s | – | 9.684 ± 0.66 mPa·s | 6.517 ± 0.43 mPa·s
101 kPa, x1 = 0.2985 | 56.54 ± 3.6 mPa·s | – | 31.07 ± 2 mPa·s | – | 18.14 ± 1.1 mPa·s | 11.42 ± 0.72 mPa·s
101 kPa, x1 = 0.3975 | 84.73 ± 5.2 mPa·s | – | 45.33 ± 2.8 mPa·s | – | 25.74 ± 1.6 mPa·s | 15.8 ± 0.97 mPa·s
101 kPa, x1 = 0.4963 | 103.2 ± 6.4 mPa·s | – | 54.91 ± 3.3 mPa·s | – | 31.5 ± 1.9 mPa·s | 18.96 ± 1.2 mPa·s
101 kPa, x1 = 0.5949 | 113.9 ± 7 mPa·s | – | 60.93 ± 3.7 mPa·s | – | – | 20.85 ± 1.3 mPa·s
101 kPa, x1 = 0.6934 | 115.5 ± 7.1 mPa·s | – | 62.48 ± 3.8 mPa·s | – | 35.73 ± 2.2 mPa·s | 21.72 ± 1.3 mPa·s
101 kPa, x1 = 0.7916 | 113.6 ± 7 mPa·s | – | 61.99 ± 3.8 mPa·s | – | 35.44 ± 2.1 mPa·s | 21.95 ± 1.3 mPa·s
101 kPa, x1 = 0.8896 | 109.8 ± 6.8 mPa·s | – | 59.49 ± 3.6 mPa·s | – | 35.12 ± 2.1 mPa·s | –
101 kPa, x2 = 0.815 | – | 17.44 ± 0.24 mPa·s | – | – | – | –
101 kPa, x2 = 0.9 | – | 9.66 ± 0.11 mPa·s | – | – | – | –
101 kPa, x2 = 0.91 | 6.35 ± 1.3 mPa·s | 5.4 ± 0.06 mPa·s and 5.25 ± 1.1 mPa·s | 4.34 ± 0.87 mPa·s | – | – | –
101 kPa, x2 = 0.9391 | – | 3.27 ± 0.03 mPa·s | – | – | – | –
101 kPa, x2 = 0.94 | 3.53 ± 0.71 mPa·s | 2.99 ± 0.6 mPa·s | 2.54 ± 0.51 mPa·s | – | 1.89 ± 0.38 mPa·s | 1.45 ± 0.29 mPa·s
101 kPa, x2 = 0.96 | 2.264 ± 0.45 mPa·s | 1.921 ± 0.38 mPa·s | 1.695 ± 0.34 mPa·s | – | 1.32 ± 0.26 mPa·s | –
101.3 kPa, x1 = 0.02 | 1.541 ± 0.25 mPa·s | 1.316 ± 0.25 mPa·s | – | – | 0.931 ± 0.24 mPa·s | 0.773 ± 0.24 mPa·s
101.3 kPa, x1 = 0.04 | 2.268 ± 0.26 mPa·s | 1.924 ± 0.25 mPa·s | 1.697 ± 0.25 mPa·s | – | 1.325 ± 0.24 mPa·s | 1.068 ± 0.24 mPa·s
101.3 kPa, x1 = 0.06 | 3.637 ± 0.29 mPa·s | 3.036 ± 0.26 mPa·s | 2.594 ± 0.25 mPa·s | – | – | –
101.3 kPa, x1 = 0.09 | 6.345 ± 0.37 mPa·s | 5.245 ± 0.3 mPa·s | 4.325 ± 0.28 mPa·s | – | 3.107 ± 0.26 mPa·s | 2.367 ± 0.25 mPa·s
101.3 kPa, x1 = 0.1 | 11.84 ± 0.64 mPa·s | 9.196 ± 0.41 mPa·s | 7.437 ± 0.34 mPa·s | – | 5.101 ± 0.29 mPa·s | 3.599 ± 0.27 mPa·s
101.3 kPa, x1 = 0.2 | 22.64 ± 0.98 mPa·s | 17.25 ± 0.72 mPa·s | – | – | 8.843 ± 0.39 mPa·s | 6.015 ± 0.31 mPa·s
101.3 kPa, x1 = 0.3 | 37.14 ± 2 mPa·s | 29.03 ± 1.1 mPa·s | 22.69 ± 0.82 mPa·s | – | 14.91 ± 0.57 mPa·s | 9.618 ± 0.42 mPa·s
101.3 kPa, x1 = 0.4 | 71.95 ± 3.1 mPa·s | 58.29 ± 2 mPa·s | 42.41 ± 1.6 mPa·s | – | 24.45 ± 1 mPa·s | 14.36 ± 0.59 mPa·s
101.3 kPa, x1 = 0.6 | 101.9 ± 7.8 mPa·s | 81.67 ± 5 mPa·s | 54.66 ± 1.9 mPa·s | – | 34.23 ± 1.4 mPa·s | 19.22 ± 0.8 mPa·s
101.33 kPa, x1 = 0.017 | – | – | 1.137 ± 0.01 mPa·s | – | 0.907 ± 0.008 mPa·s | –
101.33 kPa, x1 = 0.036 | 2.262 ± 0.022 mPa·s | 1.941 ± 0.019 mPa·s | 1.686 ± 0.016 mPa·s | – | – | 1.051 ± 0.01 mPa·s
101.33 kPa, x1 = 0.061 | 3.69 ± 0.042 mPa·s | 3.092 ± 0.035 mPa·s | – | – | – | –
101.33 kPa, x1 = 0.092 | 6.452 ± 0.085 mPa·s | 5.253 ± 0.07 mPa·s | 4.359 ± 0.057 mPa·s | 3.671 ± 0.048 mPa·s | 3.112 ± 0.041 mPa·s | 2.309 ± 0.03 mPa·s
101.33 kPa, x1 = 0.13 | 11.7 ± 0.18 mPa·s | 9.208 ± 0.14 mPa·s | 7.436 ± 0.11 mPa·s | 6.097 ± 0.092 mPa·s | – | 3.642 ± 0.055 mPa·s
